Measured values reported in PMC6271338, “Synthesis and Cytotoxic Evaluation of Alkoxylated Chalcones” (Molecules, 2014).

Key:
[1] = tested on: HeLa cells; assay: In vitro anti-proliferative SRB assay, HeLa; format: cell-based, human; details: for IC50: Homo sapiens, HeLa, increasing concentrations up to 30 μM, mean ± SD of at least three independent experiments; for SI (CC50 HMLE/IC50 Hela) / SI (CC50 L02/IC50 Hela): selectivity index; for SI (CC50 HMLE/IC50 Hela): HMLE vs HeLa; for SI (CC50 L02/IC50 Hela): L02 vs HeLa
Description: (§1) HepG2 and MCF7 cells were grown in the Eagle’s minimum essential medium with Earle’s balanced salts (MEM-EBSS) medium, HeLa, A549 and L02 cells were grown in Dulbecco’s Modified Eagle Media (DMEM), SW1990 cells were grown in RPMI-1640 medium, and HMLE cell were grown in DMEM/F-12 medium. […]
(§2) Cells were seeded into 96-well plates (4000 cells/well) and incubated at 37 °C in a humidified 5% CO2 atmosphere. After 24 h, the cells were treated with different concentrations of the compounds for 48 h in triplicate to generate dose-response curves. Cell viability was evaluated using the sulforhodamine B (SRB) assay as previous described.

[2] = Cytotoxicity (SRB) against non-tumoral HMLE cells; format: cell-based, human; details: human, HMLE cells (non-tumoral human mammary epithelial cells); increasing concentrations up to 100 μM; mean ± SD of at least three independent experiments; read-out: Normal Human Cell Lines, CC50, HMLE
Description: (§3) All compounds were also evaluated for their cytotoxic activity against two non-tumoral human cell lines named human mammary epithelial cell (HMLE) and L02 (a human liver cell line) in Table 2 and SI values between the CC50 in non-tumoral cell lines and IC50 in tumoral cells calculated.
as §1
(§4) Cells were seeded into 96-well plates (4000 cells/well) and incubated at 37 °C in a humidified 5% CO2 atmosphere. After 24 h, the cells were treated with different concentrations of the compounds for 48 h in triplicate to generate dose-response curves. Cell viability was evaluated using the sulforhodamine B (SRB) assay as previous described. […] Etoposide was used as the positive control.

[3] = tested on: HepG2 cells; assay: In vitro anti-proliferative SRB assay, HepG2; format: cell-based, human; details: for IC50: Homo sapiens, HepG2, increasing concentrations up to 30 μM, mean ± SD of at least three independent experiments; for SI (CC50 HMLE/IC50 HepG2) / SI (CC50 L02/IC50 HepG2): selectivity index; for SI (CC50 HMLE/IC50 HepG2): HMLE vs HepG2; for SI (CC50 L02/IC50 HepG2): L02 vs HepG2
Description: as §1, §2

[4] = Cytotoxicity (SRB) against non-tumoral L02 cells; format: cell-based, human; details: human, L02 cells (non-tumoral human liver cell line); increasing concentrations up to 100 μM; mean ± SD of at least three independent experiments; read-out: Normal Human Cell Lines, CC50, L02
Description: as §3, §1, §4

[5] = tested on: MCF-7 cells; assay: In vitro anti-proliferative SRB assay, MCF-7; format: cell-based, human; details: for IC50: Homo sapiens, MCF7, increasing concentrations up to 30 μM, mean ± SD of at least three independent experiments; for SI (CC50 HMLE/IC50 MCF7) / SI (CC50 L02/IC50 MCF7): selectivity index; for SI (CC50 HMLE/IC50 MCF7): HMLE vs MCF7; for SI (CC50 L02/IC50 MCF7): L02 vs MCF7
Description: as §1, §2

[6] = tested on: SW1990 cells; assay: In vitro anti-proliferative SRB assay, SW1990; format: cell-based, human; details: for IC50: Homo sapiens, SW1990, increasing concentrations up to 30 μM, mean ± SD of at least three independent experiments; for SI (CC50 HMLE/IC50 SW1990) / SI (CC50 L02/IC50 SW1990): selectivity index; for SI (CC50 HMLE/IC50 SW1990): HMLE vs SW1990; for SI (CC50 L02/IC50 SW1990): L02 vs SW1990
Description: as §1, §2

[7] = tested on: A549 cells; assay: In vitro anti-proliferative SRB assay, A549; format: cell-based, human; details: for IC50: Homo sapiens, A549, increasing concentrations up to 30 μM, mean ± SD of at least three independent experiments; for SI (CC50 HMLE/IC50 A549) / SI (CC50 L02/IC50 A549): selectivity index; for SI (CC50 HMLE/IC50 A549): HMLE vs A549; for SI (CC50 L02/IC50 A549): L02 vs A549
Description: as §1, §2

Compound: COc1cccc(OC)c1/C=C/C(=O)c1cccc(C)c1 [b3, (E)-1-(3-Methylphenyl)-3-(2,6-dimethoxyphenyl)prop-2-en-1-one]
- IC50 [1]: 13.3 ± 2.14 µM
- SI (CC50 HMLE/IC50 Hela) [1]: 1.2
- SI (CC50 L02/IC50 Hela) [1]: 2.5
- CC50 at 48 h [2]: 16.2 ± 0.19 µM
- IC50 [3]: 12.8 ± 0.5 µM
- SI (CC50 HMLE/IC50 HepG2) [3]: 1.3
- SI (CC50 L02/IC50 HepG2) [3]: 2.6
- CC50 at 48 h [4]: 33.3 ± 1.61 µM
- melting point: 102.5 to 103.8 °C
- IC50 [5]: 26.8 ± 4.26 µM
- SI (CC50 HMLE/IC50 MCF7) [5]: 0.6
- SI (CC50 L02/IC50 MCF7) [5]: 1.2
- IC50 [6]: 25.2 ± 2 µM
- SI (CC50 HMLE/IC50 SW1990) [6]: 0.6
- SI (CC50 L02/IC50 SW1990) [6]: 1.3
- IC50 [7]: 20.7 ± 0.59 µM
- SI (CC50 HMLE/IC50 A549) [7]: 0.8
- SI (CC50 L02/IC50 A549) [7]: 1.6

Compound: COc1cccc(OC)c1/C=C/C(=O)c1ccc(C)cc1 [b4, (E)-1-(4-Methylphenyl)-3-(2,6-dimethoxyphenyl)prop-2-en-1-one]
- IC50 [1]: 18.6 ± 0.36 µM
- SI (CC50 HMLE/IC50 Hela) [1]: 0.7
- SI (CC50 L02/IC50 Hela) [1]: 3.2
- CC50 at 48 h [2]: 13.8 ± 1.69 µM
- IC50 [3]: 19.5 ± 1.28 µM
- SI (CC50 HMLE/IC50 HepG2) [3]: 0.7
- SI (CC50 L02/IC50 HepG2) [3]: 3.1
- CC50 at 48 h [4]: 59.6 ± 5.56 µM
- melting point: 82.7 to 84.5 °C
- IC50 [5]: 25.44 ± 0.15 µM
- SI (CC50 HMLE/IC50 MCF7) [5]: 0.5
- SI (CC50 L02/IC50 MCF7) [5]: 2.3
- IC50 [6]: > 30 µM
- SI (CC50 HMLE/IC50 SW1990) [6]: <0.5
- SI (CC50 L02/IC50 SW1990) [6]: <2.0
- IC50 [7]: 22.1 ± 0.6 µM
- SI (CC50 HMLE/IC50 A549) [7]: 0.6
- SI (CC50 L02/IC50 A549) [7]: 2.7

Compound: COc1cccc(OC)c1/C=C/C(=O)c1ccc(C)c(C)c1 [b5, (E)-1-(3,4-Dimethylphenyl)-3-(2,6-dimethoxyphenyl)prop-2-en-1-one]
- IC50 [1]: 20.3 ± 1.01 µM
- SI (CC50 HMLE/IC50 Hela) [1]: 0.8
- SI (CC50 L02/IC50 Hela) [1]: 1.2
- CC50 at 48 h [2]: 15.7 ± 0.76 µM
- IC50 [3]: 26.8 ± 0.3 µM
- SI (CC50 HMLE/IC50 HepG2) [3]: 0.6
- SI (CC50 L02/IC50 HepG2) [3]: 0.9
- CC50 at 48 h [4]: 25.2 ± 2.71 µM
- melting point: 98.9 to 101.1 °C
- IC50 [5]: 30.31 ± 0.29 µM
- SI (CC50 HMLE/IC50 MCF7) [5]: 0.5
- SI (CC50 L02/IC50 MCF7) [5]: 0.8
- IC50 [6]: > 30 µM
- SI (CC50 HMLE/IC50 SW1990) [6]: <0.5
- SI (CC50 L02/IC50 SW1990) [6]: <0.8
- IC50 [7]: > 30 µM
- SI (CC50 HMLE/IC50 A549) [7]: <0.5
- SI (CC50 L02/IC50 A549) [7]: <0.8

Compound: COc1cccc(C(=O)/C=C/c2c(OC)cccc2OC)c1 [b7, (E)-1-(3-Methoxyphenyl)-3-(2,6-dimethoxyphenyl)prop-2-en-1-one]
- IC50 [1]: 9.98 ± 0.37 µM
- SI (CC50 HMLE/IC50 Hela) [1]: 0.8
- SI (CC50 L02/IC50 Hela) [1]: 1.8
- CC50 at 48 h [2]: 8.14 ± 0.53 µM
- IC50 [3]: 6.97 ± 0.55 µM
- SI (CC50 HMLE/IC50 HepG2) [3]: 1.2
- SI (CC50 L02/IC50 HepG2) [3]: 2.6
- CC50 at 48 h [4]: 18.1 ± 5.82 µM
- melting point: 93.5 to 95.6 °C
- IC50 [5]: 6.37 ± 0.05 µM
- SI (CC50 HMLE/IC50 MCF7) [5]: 1.3
- SI (CC50 L02/IC50 MCF7) [5]: 2.8
- IC50 [6]: 15.6 µM
- SI (CC50 HMLE/IC50 SW1990) [6]: 0.5
- SI (CC50 L02/IC50 SW1990) [6]: 1.2
- IC50 [7]: 14 ± 0.19 µM
- SI (CC50 HMLE/IC50 A549) [7]: 0.6
- SI (CC50 L02/IC50 A549) [7]: 1.3

Compound: CCOc1cccc(C(=O)/C=C/c2c(OC)cccc2OC)c1 [b9, (E)-1-(3-Ethoxyphenyl)-3-(2,6-dimethoxyphenyl)prop-2-en-1-one]
- IC50 [1]: 12.2 ± 0.25 µM
- SI (CC50 HMLE/IC50 Hela) [1]: 0.8
- SI (CC50 L02/IC50 Hela) [1]: 1.4
- CC50 at 48 h [2]: 9.58 ± 0.44 µM
- IC50 [3]: 7.71 ± 0.21 µM
- SI (CC50 HMLE/IC50 HepG2) [3]: 1.2
- SI (CC50 L02/IC50 HepG2) [3]: 2.3
- CC50 at 48 h [4]: 17.4 ± 5.96 µM
- melting point: 63.1 to 64.8 °C
- IC50 [5]: 11.59 ± 0.07 µM
- SI (CC50 HMLE/IC50 MCF7) [5]: 0.8
- SI (CC50 L02/IC50 MCF7) [5]: 1.5
- IC50 [6]: 10.68 ± 0.08 µM
- SI (CC50 HMLE/IC50 SW1990) [6]: 0.9
- SI (CC50 L02/IC50 SW1990) [6]: 1.6
- IC50 [7]: 13.2 ± 0.43 µM
- SI (CC50 HMLE/IC50 A549) [7]: 0.7
- SI (CC50 L02/IC50 A549) [7]: 1.3

Compound: CCOc1ccc(C(=O)/C=C/c2c(OC)cccc2OC)cc1 [b10, (E)-1-(4-Ethoxyphenyl)-3-(2,6-dimethoxyphenyl)prop-2-en-1-one]
- IC50 [1]: 14.4 ± 0.15 µM
- SI (CC50 HMLE/IC50 Hela) [1]: 1.0
- SI (CC50 L02/IC50 Hela) [1]: 2.6
- CC50 at 48 h [2]: 13.8 ± 3.77 µM
- IC50 [3]: 10.9 ± 0.46 µM
- SI (CC50 HMLE/IC50 HepG2) [3]: 1.3
- SI (CC50 L02/IC50 HepG2) [3]: 3.4
- CC50 at 48 h [4]: 36.7 ± 3.41 µM
- melting point: 99 to 101.2 °C
- IC50 [5]: 19.8 ± 0.69 µM
- SI (CC50 HMLE/IC50 MCF7) [5]: 0.7
- SI (CC50 L02/IC50 MCF7) [5]: 1.9
- IC50 [6]: 19.5 ± 0.23 µM
- SI (CC50 HMLE/IC50 SW1990) [6]: 0.7
- SI (CC50 L02/IC50 SW1990) [6]: 1.9
- IC50 [7]: 22.7 ± 0.57 µM
- SI (CC50 HMLE/IC50 A549) [7]: 0.6
- SI (CC50 L02/IC50 A549) [7]: 1.6

Compound: COc1cccc(OC)c1/C=C/C(=O)c1cccc(OCc2ccccc2)c1 [b12, (E)-1-(3-(Benzyloxy)phenyl)-3-(2,6-dimethoxyphenyl)prop-2-en-1-one]
- IC50 [1]: 25.6 ± 1.16 µM
- SI (CC50 HMLE/IC50 Hela) [1]: 1.2
- SI (CC50 L02/IC50 Hela) [1]: >3.9
- CC50 at 48 h [2]: 31.4 ± 1.12 µM
- IC50 [3]: 23.6 ± 0.84 µM
- SI (CC50 HMLE/IC50 HepG2) [3]: 1.3
- SI (CC50 L02/IC50 HepG2) [3]: >4.2
- CC50 at 48 h [4]: > 100 µM
- melting point: 108.8 to 110.2 °C
- IC50 [5]: 29.03 ± 0.09 µM
- SI (CC50 HMLE/IC50 MCF7) [5]: 1.1
- SI (CC50 L02/IC50 MCF7) [5]: >3.4
- IC50 [6]: 22.3 ± 0.07 µM
- SI (CC50 HMLE/IC50 SW1990) [6]: 1.4
- IC50 [7]: 13.25 ± 0.02 µM
- SI (CC50 HMLE/IC50 A549) [7]: 2.4

Compound: COc1cccc(OC)c1/C=C/C(=O)c1ccc(OCc2ccccc2)cc1 [b13, (E)-1-(4-(Benzyloxy)phenyl)-3-(2,6-dimethoxyphenyl)prop-2-en-1-one]
- IC50 [1]: > 30 µM
- CC50 at 48 h [2]: > 100 µM
- IC50 [3]: 21.8 ± 0.62 µM
- SI (CC50 HMLE/IC50 HepG2) [3]: >4.6
- SI (CC50 L02/IC50 HepG2) [3]: >4.6
- CC50 at 48 h [4]: > 100 µM
- melting point: 96.6 to 97.8 °C
- IC50 [5]: > 30 µM
- IC50 [6]: > 30 µM
- IC50 [7]: > 30 µM
